Assay results published in patent publication US20100286076A1, “ECTOPARASITICIDAL METHODS AND FORMULATIONS” (priority 2009, published 2010).
Where two headings read alike, the source gives them in different places.

What was measured:
House Fly = assay: Adult House Fly Assay (AhsF), feeding on compound-soaked dental wicks, 24 h mortality; design: species or system Musca domestica; details: 24 h, read-out: Potency (24 h EC50 μM)
Protocol: Adult Stable or House Fly Assay (ASF, AhsF). This assay is conducted essentially as described in White, W. H., S. M. Bauer, X. Zhao et al., Comparison of in vitro and in vivo ectoparasiticide activity of an experimental benzimidazole-carbamate with permethrin and amitraz, J. Med. Entomol. 42, 207-211 (2005); and White, W. H., C. M. McCoy, J. A. Meyer et al., Knockdown and mortality comparisons among spinosad-, imidacloprid-, and methomyl-containing baits against susceptible Musca domestica (Diptera: Muscidae) under laboratory conditions, J. Econ. Entomol. 100, 155-163 (2007).
Test material is formulated in DMSO at 10 mM. Doubling dilutions in like solvent are made to yield 10 testing levels. Materials are diluted in either bovine serum (stable flies) or 5% glucose solution (house flies) to obtain desired exposure concentrations from 200-0.39 μM. Approximately 3 ml of diluted test material is placed into a test tube (n=3 per test level) and a dental wick is used to absorb fluid. One dental wick is placed into a small weigh boat inside of a 100 mm Petri dish. Approximately 10 mixed-sex adult flies are anesthetized using carbon dioxide and counted into each dish. Dishes are incubated at 27° C. and 50-70% relative humidity. Flies recover from anesthesia and feed on compound-soaked dental wicks. After 24 h, live/dead flies are enumerated. Nonlinear regression is used to model dose-mortality relationship and obtain relative potency (LD50) data compared to contemporaneous controls (solvent-only or permethrin).

[1] = test system: adult cat flea, Ctenocephalides felis; details: dogs, historical data, not contemporaneous controls, cited from earlier work

Molecule	EC50 (House Fly; Musca domestica) [µM]	EC50 (House Fly; adult house flies, 5% glucose solution) [µM]	geometric mean percent flea reduction, Day 7 ([1]; Day 7) [%]	geometric mean percent flea reduction, Day 14 ([1]; Day 14) [%]	geometric mean percent flea reduction, Day 21 ([1]; Day 21) [%]	geometric mean percent flea reduction, Day 30 ([1]; Day 30) [%]	geometric mean percent flea reduction, Day 37 ([1]; Day 37) [%]	geometric mean percent flea reduction, Knockdown ([1]; Knockdown) [%]
N#Cc1nn(-c2c(Cl)cc(C(F)(F)F)cc2Cl)c(N)c1[S+]([O-])C(F)(F)F (centres unmarked) [Fipronil, reference compound]	0.97							
Spinosad		12	100	99.6	100	97.8	91.1	100
